Results as given in US12139472B2, “Inhibitors of advanced glycation end products” (priority 2019, dated 2024).

What was measured:
[1] = biological target: T1, CYP3A (Homo sapiens, UniProt P08684); type: in vitro ADME; settings: HLM
T1 construct: Two studies were conducted in human liver microsomes (HLM); tissue Eurofins G232 panel; host or cells: human liver microsomes
Source text: (§1) Compound 5 (PTG-630 free base) and 7 additional compounds for CYP3A P450 inhibition.
(§2) Imidazole (and benzimidazole) containing drugs are ubiquitous in pharmacological practice; however, drug-drug interactions (DDI) have been observed with some imidazole-containing classes, such as the antifungal azoles typified by ketoconazole. It is believed that the imidazole moiety accounts for their ability to inhibit CYP3A, the major DDI enzyme that metabolizes up to 50% of common drugs. The compounds of the disclosure incorporate an imidazole moiety attached to a pyridine ring via the imidazole C-2. They all share an imidazo-hydroxypyridine theme that can bind redox metal ions, while differing in the nature of the X side-chain. The potential of the compounds of the disclosure for DDI was evaluated by screening their inhibition of CYP3A.
Two studies were conducted in human liver microsomes (HLM). Lead candidate PTG-630 was tested using the Eurofins G232 panel (Drug Metab Dispos. 2001 January; 29(1):23-9), where inhibition was measured against seven CYP enzymes; CYP3A4 was tested using two different substrates, midazolam and testosterone. In a second study, inhibition of CYP3A4 (midazolam substrate only) was compared for 8 compounds of interest. The test protocol involved one-point measurements in duplicate, where inhibition was measured at a fixed 10 μM concentration of candidate inhibitors. In all cases, the substrate for each CYP enzyme was at a concentration equal to its specific Km value that was independently obtained from an 8-point dose-response study. Based on the observed value for percent inhibition for each test compound, we calculated of an IC50 assuming a competitive mode of inhibition. If percent inhibition for an inhibitor at a concentration of [I] is denoted by P, then: IC50=[I]*(100−P)/P In the single-point assay, [I] is 10 μM. If measured inhibition is 10%, then IC50=10*(100-10)/10=90 μM. […]

[2] = tested on: CYP3A; type: in vitro ADME, human; settings: HLM
Source text: as §1, §2
(§3) Two studies were conducted in human liver microsomes (HLM). Lead candidate PTG-630 was tested using the Eurofins G232 panel (Drug Metab Dispos. 2001 January; 29(1):23-9), where inhibition was measured against seven CYP enzymes; CYP3A4 was tested using two different substrates, midazolam and testosterone. In a second study, inhibition of CYP3A4 (midazolam substrate only) was compared for 8 compounds of interest. The test protocol involved one-point measurements in duplicate, where inhibition was measured at a fixed 10 μM concentration of candidate inhibitors. In all cases, the substrate for each CYP enzyme was at a concentration equal to its specific Km value that was independently obtained from an 8-point dose-response study. Based on the observed value for percent inhibition for each test compound, we calculated of an IC50 assuming a competitive mode of inhibition. If percent inhibition for an inhibitor at a concentration of [I] is denoted by P, then: IC50=[I]*(100−P)/P In the single-point assay, [I] is 10 μM. If measured inhibition is 10%, then IC50=10*(100-10)/10=90 μM. […] As discussed in Lin et al. (J Pharm Sci. 2007 September; 96(9):2485-93; doi: 10.1002/jps.20884), CYP inhibition is broadly interpreted as being “potent” if IC50<1 μM, “moderate” if 1 μM<IC50<10 μM, and “weak” if IC50>10 μM.

[3] = biological target: T2, CYP2D6 (Homo sapiens, UniProt P10635); test: CYP2D6 inhibition (HLM), dextromethorphan; type: in vitro ADME
T2 construct: Two studies were conducted in human liver microsomes (HLM); tissue Eurofins G232 panel; host or cells: human liver microsomes
Description: as §1, §3

[4] = Pharmacokinetic study for PTG-630 (IV and PO): plasma, whole blood, tissues, urine; type: in vivo, Sprague Dawley rats
Description: The samples were analyzed in two batches with standards and QCs prepared on rat plasma and rat urine. Analyst® 1.6 (SCIEX) software was used for statistical analysis of bioanalytical data. […] Dose samples collected at 0.083 h-6 h postdose were diluted 4 times with SD rat plasma prior to plating. Twenty-four (24) hours plasma samples were assayed without dilution. […] Two sciatic nerve samples were excluded from analysis, due to the insufficient sample size. […] The 12 non-cannulated animals were arbitrarily assigned to groups upon arrival and housed together throughout the experiment. The animals were acclimated to their designated housing for at least 24 hours before the first day of dosing. […] Blood samples were collected via cannula from IV dosed rats or by cardiac stick from PO dosed rats at the specified time points for sampling pharmacokinetics. Blood was collected into K2EDTA tubes. Tubes were mixed gently after blood collection, chilled and centrifuged at 3000 rpm, 4° C. within 30 minutes upon collection. The samples were centrifuged at 4° C. and the resultant plasma separated. […] Urine from Group 1 was collected via polycarbonate tubes from rats placed in drug metabolism cages. Urine was maintained and room temperature through the collection period.

[5] = biological target: T3, CYP2C19 (Homo sapiens, UniProt P33261); test: CYP2C19 inhibition (HLM), omeprazole; type: in vitro ADME
T3 construct: Two studies were conducted in human liver microsomes (HLM); tissue Eurofins G232 panel; host or cells: human liver microsomes
Description: as §1, §3

[6] = plasma, PO 100 mg/kg vs IV 5 mg/kg

T1 sequence (P08684 2-503): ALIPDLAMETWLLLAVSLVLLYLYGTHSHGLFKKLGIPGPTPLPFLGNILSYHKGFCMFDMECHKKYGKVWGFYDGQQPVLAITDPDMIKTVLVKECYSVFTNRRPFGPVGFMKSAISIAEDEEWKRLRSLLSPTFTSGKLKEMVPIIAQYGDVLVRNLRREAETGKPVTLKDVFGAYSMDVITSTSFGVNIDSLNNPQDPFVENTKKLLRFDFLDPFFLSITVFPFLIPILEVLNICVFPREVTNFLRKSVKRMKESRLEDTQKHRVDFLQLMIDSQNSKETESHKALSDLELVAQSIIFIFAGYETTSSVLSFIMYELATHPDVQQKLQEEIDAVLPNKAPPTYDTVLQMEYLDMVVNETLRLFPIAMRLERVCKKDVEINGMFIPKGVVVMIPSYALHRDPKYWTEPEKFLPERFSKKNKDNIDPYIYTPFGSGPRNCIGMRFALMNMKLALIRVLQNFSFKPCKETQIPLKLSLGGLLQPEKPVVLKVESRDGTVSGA
T2 sequence (P10635 whole entry): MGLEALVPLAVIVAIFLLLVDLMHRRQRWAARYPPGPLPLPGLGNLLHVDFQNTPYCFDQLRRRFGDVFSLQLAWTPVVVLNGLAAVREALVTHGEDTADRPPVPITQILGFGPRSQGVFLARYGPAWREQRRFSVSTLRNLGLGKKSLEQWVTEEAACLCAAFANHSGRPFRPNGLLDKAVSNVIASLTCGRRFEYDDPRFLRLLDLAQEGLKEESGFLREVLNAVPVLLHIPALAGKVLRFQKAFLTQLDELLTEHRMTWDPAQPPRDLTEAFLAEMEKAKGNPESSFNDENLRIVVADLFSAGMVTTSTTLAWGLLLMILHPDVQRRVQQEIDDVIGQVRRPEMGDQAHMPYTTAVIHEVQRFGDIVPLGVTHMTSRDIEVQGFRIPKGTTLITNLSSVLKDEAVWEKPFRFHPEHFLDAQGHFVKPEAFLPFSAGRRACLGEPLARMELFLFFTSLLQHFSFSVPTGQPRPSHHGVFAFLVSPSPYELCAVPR
T3 sequence (P33261 whole entry): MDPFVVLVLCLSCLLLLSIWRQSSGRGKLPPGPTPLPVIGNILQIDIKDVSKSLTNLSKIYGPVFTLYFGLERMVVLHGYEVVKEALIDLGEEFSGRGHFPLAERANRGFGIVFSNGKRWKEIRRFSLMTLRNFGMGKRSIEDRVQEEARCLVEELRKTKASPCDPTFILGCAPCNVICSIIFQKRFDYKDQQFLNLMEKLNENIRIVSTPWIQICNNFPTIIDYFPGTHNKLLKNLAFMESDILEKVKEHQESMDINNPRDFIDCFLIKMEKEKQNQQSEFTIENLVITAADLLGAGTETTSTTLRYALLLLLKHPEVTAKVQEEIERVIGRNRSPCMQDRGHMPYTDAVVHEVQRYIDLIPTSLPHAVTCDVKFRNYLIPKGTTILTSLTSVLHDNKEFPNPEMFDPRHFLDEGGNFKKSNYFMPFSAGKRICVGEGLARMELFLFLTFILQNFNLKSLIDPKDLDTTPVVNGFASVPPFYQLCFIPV

Structure (SMILES): Cc1ncc(CN2CCOCC2)c(-c2ncc[nH]2)c1O [PTG-630]
- P % inhib ([1]; CYP3A, substrate testosterone at Km, Inhib Conc. 1.0E−05 M): 1.56%
- IC50 ([1]; CYP3A, testosterone, from one-point % inhibition at 10 μM, IC50=[I]*(100−P)/P, read-out: Estimated IC50): 631 µM
- CYP3A inhibition using testosterone as substrate (in words) ([1]; 10 μM): very weak inhibition
- Estimated IC50 ([2]; midazolam, from one-point % inhibition at 10 μM, IC50=[I]*(100−P)/P): — None
- P % inhib ([2]; substrate midazolam at Km, Inhib Conc. 1.0E−05 M): −12.1%
- Estimated IC50 ([3]; dextromethorphan, from one-point % inhibition at 10 μM, IC50=[I]*(100−P)/P): — None
- P % inhib ([3]; substrate dextromethorphan at Km, Inhib Conc. 1.0E−05 M): −0.83%
- fold decrease in AUClast for PO route over IV route [4, 6]: 4 fold
- fold decrease in mean Cmax for PO route over IV route [4, 6]: 17 fold
- Mean Residence Time (MRT) in plasma, single IV versus PO group ([4]; rat, in vivo): comparable
- bioavailable, PO route, based on AUCinf ([4]; rat, in vivo): < 1%
- increase in the half-life in plasma, IV route in comparison with PO route ([4]; rat, in vivo): 4.25 folds
- terminal phase half-life ([4]; rat, in vivo, iv): 15.8 h
- AUClast ([4]; rat, in vivo, iv, 5 mg/kg): 34000 ng·h/mL
- Cmax ([4]; rat, in vivo, iv, 5 mg/kg): 20,400 ng/mL
- AUC last in liver higher than in plasma ([4]; rat, in vivo, po): 2.6 folds
- Elimination phase half-life (t1/2) ([4]; rat, in vivo, po): 1.35 h
- Half-life ([4]; rat, in vivo, po): 4.53 h
- Tmax in tissues ([4]; rat, in vivo, po): 1 h
- absorption in tissues (in words) ([4]; rat, in vivo, po): rapidly absorbed in tissues without delay
- detection in tissues 24 hours postdose ([4]; rat, in vivo, po): not detectable in any tissue, except plasma
- exposure in kidney higher than in plasma, based on Cmax ([4]; rat, in vivo, po): 3.4 folds
- exposure in liver higher than in plasma, based on Cmax ([4]; rat, in vivo, po): 5.47 folds
- exposure in muscle (lowest) versus plasma ([4]; rat, in vivo, po): comparable to those in plasma
- half-life ([4]; rat, in vivo, po): 3.71 h
- half-life in brain relative to plasma (times higher) ([4]; rat, in vivo, po): 1.3 times
- level of exposure in selected tissues exceeds the exposure in plasma (up to) ([4]; rat, in vivo, po): 3-5 folds
- quantifiable in tissues ([4]; rat, in vivo, po): quantifiable in all tested tissues
- AUClast ([4]; rat, in vivo, po, 100 mg/kg): 8600 ng·h/mL
- blood brain permeability (in words) ([4]; rat, po): indicating blood brain permeability
- IC50 ([5]; omeprazole, from one-point % inhibition at 10 μM, IC50=[I]*(100−P)/P, read-out: Estimated IC50): 26.4 µM
- P % inhib ([5]; substrate omeprazole at Km, Inhib Conc. 1.0E−05 M): 27.5%
